Read-outs that look alike come from different tables or passages of the source.
Test system: diarrhea-predominant IBS subjects
Assay type: in vivo, human
Details: for Number of subjects who died / Primary reason for withdrawal: Adverse event and lack of efficacy / Primary reason for withdrawal: Baseline complaint/adverse event: 2 mg TID
Experimental: The study was performed in approximately 150 study centers. Approximately 1600 eligible subjects were to be given cilansetron 2 mg TID. At Visit 1, pre-treatment assessments were conducted. […] Subjects were to return to the study site one month later for Visit 3 (Day 31) for their first interim assessment. […] All subjects who discontinued from the study were to have the same post-study assessments required at Visit 7 performed at their early termination visit. […]
Stool specimens were analyzed at every visit for occult blood. An independent GERB had been established to provide advice on GI AEs during the course of the study.
Adverse events were assessed at Baseline, at each clinic visit, and at the end of the study (Month 12 or the early termination visit). All AEs, which occurred during the study were followed up in accordance with good medical practice until resolved or judged no longer clinically significant, or if a condition was chronic, until fully characterized. Adverse events could occur in the specified follow-up period and, regardless of the interval since the last administration of the study medication, were treated in the same manner as an AE which occurred during the treatment with study medication. Each AE was evaluated for duration, severity, seriousness, and causal relationship to the investigational drug. The action taken and the outcome were also recorded.
Specifically, subjects who were lost to follow-up and had no post-Baseline contact with the site were excluded from the Safety population. The subjects who discontinued from the study due to lost to follow-up were identified based on the information collected on the study termination CRF page.
After the pretreatment assessment at Visit 1 (Days […] to −3), subjects were to return to the study site for a Baseline assessment and start the treatment at Visit 2 (Day 1).
For the by time-interval analyses of disposition, prevalence of AEs, and of markedly abnormal and predefined changes in laboratory values, vital signs, and ECGs, the following interval windows were used:
Adverse events that were already present prior to the first dose of cilansetron study medication but increased in severity afterwards were considered as treatment-emergent.
The 5% cutoff point was based on the incidence within higher level terms.
Subjects were counted at most once for each primary system organ class and preferred term. Serious AEs that resolved prior to receiving study medication or occurred more than 30 days after the last dose of study medication were not included in the incidence tables. A listing of all SAEs is presented; SAEs with onset prior to receiving study medication or more than 30 days after discontinuation of study medication were flagged. The listing presents lower level term and preferred term of the SAE, severity, action taken, outcome, and relationship of the SAE, start and stop date of the SAE, study day of onset of the SAE, age, race, and sex.

[1] = Cilansetron 2 mg, N=1454, % of appropriate gender
[2] = Study 3008, 2 mg TID (N = 1454)
[3] = Study 3008, of subjects who received study medication
[4] = TEAE incidence, 2 mg, Safety Population, HLT

Compound: Cc1nccn1C[C@H]1CCc2c(c3cccc4c3n2CCC4)C1=O [cilansetron, (R)-(−)-4,5,6,8,9,10-hexahydro-10-[(2-methyl-1H-imidazol-1-yl)methyl]-11H-pyrido-[3,2,1-jk]-carbazol-11-one]
- TEAE incidence: Transient Cerebrovascular Events (Cilansetron 2 mg, N=1454): 1 (<1%) n (%)
- TEAE incidence: Transient Global Amnesia (Cilansetron 2 mg, N=1454): 1 (<1%) n (%)
- TEAE incidence: Transient Ischaemic Attack (Cilansetron 2 mg, N=1454): 1 (<1%) n (%)
- TEAE incidence: Tremor (Cilansetron 2 mg, N=1454): 2 (<1%) n (%)
- TEAE incidence: Tremor (Excl Congenital) (Cilansetron 2 mg, N=1454): 2 (<1%) n (%)
- TEAE incidence: Triglyceride Analyses (Cilansetron 2 mg, N=1454): 11 (<1%) n (%)
- TEAE incidence: Urethritis Non-Specific (Cilansetron 2 mg, N=1454): 1 (<1%) n (%)
- TEAE incidence: Urinalysis NEC (Cilansetron 2 mg, N=1454): 20 (1%) n (%)
- TEAE incidence: Urine Bilirubin Increased (Cilansetron 2 mg, N=1454): 2 (<1%) n (%)
- TEAE incidence: Urine Ketone Body Present (Cilansetron 2 mg, N=1454): 2 (<1%) n (%)
- TEAE incidence: Vascular Tests NEC (Incl Blood Pressure) (Cilansetron 2 mg, N=1454): 7 (<1%) n (%)
- TEAE incidence: Vasovagal Attack (Cilansetron 2 mg, N=1454): 1 (<1%) n (%)
- TEAE incidence: Viraemia NOS Present (Cilansetron 2 mg, N=1454): 3 (<1%) n (%)
- TEAE incidence: Vitamin Analyses (Cilansetron 2 mg, N=1454): 1 (<1%) n (%)
- TEAE incidence: Vitamin B12 Decreased (Cilansetron 2 mg, N=1454): 1 (<1%) n (%)
- TEAE incidence: Vomiting NOS (Cilansetron 2 mg, N=1454): 25 (2%) n (%)
- TEAE incidence: Weight Decreased (Cilansetron 2 mg, N=1454): 3 (<1%) n (%)
- TEAE incidence: Weight Increased (Cilansetron 2 mg, N=1454): 13 (<1%) n (%)
- TEAE incidence: White Blood Cell Analyses (Cilansetron 2 mg, N=1454): 25 (2%) n (%)
- TEAE incidence: White Blood Cell Count Decreased (Cilansetron 2 mg, N=1454): 4 (<1%) n (%)
- TEAE incidence: White Blood Cell Count Increased (Cilansetron 2 mg, N=1454): 1 (<1%) n (%)
- TEAE incidence: White Blood Cells Urine (Cilansetron 2 mg, N=1454): 3 (<1%) n (%)
- TEAE incidence: White Blood Cells Urine Positive (Cilansetron 2 mg, N=1454): 2 (<1%) n (%)
- TEAE incidence: abdominal pain NOS (Cilansetron 2 mg, N=1454): 156 (11%) n (%)
- TEAE incidence: back pain (Cilansetron 2 mg, N=1454): 40 (3%) n (%)
- TEAE incidence: constipation (Cilansetron 2 mg, N=1454): 222 (15%) n (%)
- TEAE incidence: flatulence (Cilansetron 2 mg, N=1454): 38 (3%) n (%)
- TEAE incidence: flatulence, bloating and distension (Cilansetron 2 mg, N=1454): 91 (6%) n (%)
- TEAE incidence: headache NOS (Cilansetron 2 mg, N=1454): 100 (7%) n (%)
- TEAE incidence: nasopharyngitis (Cilansetron 2 mg, N=1454): 44 (3%) n (%)
- TEAE incidence: nausea (Cilansetron 2 mg, N=1454): 78 (5%) n (%)
- TEAE incidence: nausea and vomiting symptoms (Cilansetron 2 mg, N=1454): 92 (6%) n (%)
- TEAE incidence: sinusitis NOS (Cilansetron 2 mg, N=1454): 25 (2%) n (%)
- Total Number of Subjects with at Least One TEAE (Cilansetron 2 mg, N=1454): 931 (64%) n (%)
- TEAE incidence: Female Reproductive Tract Infections* [1]: 4 (<1%) n (%)
- TEAE incidence: Oophoritis* [1]: 1 (<1%) n (%)
- TEAE incidence: Pelvic Inflammatory Disease NOS* [1]: 1 (<1%) n (%)
- TEAE incidence: Vaginal Candidiasis* [1]: 5 (<1%) n (%)
- TEAE incidence: Vaginitis* [1]: 2 (<1%) n (%)
- TEAE incidence: Vulvovaginitis Trichomonal* [1]: 1 (<1%) n (%)
- TEAEs that led to dose reduction (Study 3008): 2%
- TEAEs that led to permanent discontinuation of study medication (Study 3008): Thirteen
- overall incidence of TEAEs possibly, probably, or unlikely related to study medication (Study 3008): 42%
- severe TEAEs (Study 3008): 9%
- special interest TEAEs (Study 3008): 54%
- subjects with a treatment emergent SAE (Study 3008): Six
- subjects with at least one TEAE (Study 3008): Sixty-four
- withdrawal for AEs (combined categories) (Study 3008): 13%
- withdrawal for lack of efficacy (combined categories) (Study 3008): 12%
- Number of subjects who died (Study 3008): 1 n
- Primary reason for withdrawal: Adverse event and lack of efficacy (Study 3008): 119 n
- Primary reason for withdrawal: Baseline complaint/adverse event (Study 3008): 75 n
- Number of deaths [2]: 1 (<1) n (%)
- Number of subjects who permanently discontinued study medication due to a TEAE [2]: 192 (13) n (%)
- Number of subjects with at least one AE of special interest [2]: 789 (54) n (%)
- Number of subjects with at least one SAE [2]: 85 (6) n (%)
- Number of subjects with at least one TEAE [2]: 931 (64) n (%)
- Number of subjects with at least one TEAE leading to dose reduction [2]: 34 (2) n (%)
- Number of subjects with at least one related TEAE [2]: 604 (42) n (%)
- Number of subjects with at least one severe TEAE [2]: 138 (9) n (%)
- Number of subjects who died [3]: (<1) %
- Primary reason for withdrawal: Adverse event and lack of efficacy [3]: (8) %
- Primary reason for withdrawal: Baseline complaint/adverse event [3]: (5) %
- Acnes [4]: 2 (<1%) n (%)
- Affect Alterations NEC [4]: 2 (<1%) n (%)
- Alopecias [4]: 6 (<1%) n (%)
- Anxiety Disorders NEC (Incl Obsessive Compulsive Disorder) [4]: 1 (<1%) n (%)
- Anxiety Symptoms [4]: 26 (2%) n (%)
- Apocrine and Eccrine Gland Disorders [4]: 8 (<1%) n (%)
- Appetite Disorders [4]: 15 (1%) n (%)
- Arthropathies NEC [4]: 6 (<1%) n (%)
- Asthenic Conditions [4]: 38 (3%) n (%)
- Benign and Malignant Breast Neoplasms* [4]: 2 (<1%) n (%)
- Bladder Disorders NEC [4]: 1 (<1%) n (%)
- Bladder and Urethral Symptoms [4]: 18 (1%) n (%)
- Breast Disorders NEC* [4]: 1 (<1%) n (%)
- Breast Signs and Symptoms* [4]: 4 (<1%) n (%)
- Breathing Abnormalities [4]: 7 (<1%) n (%)
- Bronchospasm and Obstruction [4]: 10 (<1%) n (%)
- Bursal Disorders [4]: 1 (<1%) n (%)
- Cardiac Conduction Disorders [4]: 4 (<1%) n (%)
- Cardiac Signs and Symptoms NEC [4]: 5 (<1%) n (%)
- Cartilage Disorders [4]: 1 (<1%) n (%)
- Cervix Disorders NEC* [4]: 1 (<1%) n (%)
- Chest and Lung Injuries NEC [4]: 1 (<1%) n (%)
- Connective Tissue Disorders (Excl Le) [4]: 1 (<1%) n (%)
- Coronary Artery Disorders NEC [4]: 2 (<1%) n (%)
- Coughing and Associated Symptoms [4]: 28 (2%) n (%)
- Depressive Disorders [4]: 28 (2%) n (%)
- Dermal and Epidermal Conditions NEC [4]: 4 (<1%) n (%)
- Dermatitis and Eczema [4]: 16 (1%) n (%)
- Diabetes Mellitus (Incl Subtypes) [4]: 4 (<1%) n (%)
- Dissociative States [4]: 1 (<1%) n (%)
- Disturbances in Initiating and Maintaining Sleep [4]: 20 (1%) n (%)
- Elevated Cholesterol [4]: 9 (<1%) n (%)
- Elevated Triglycerides [4]: 8 (<1%) n (%)
- Erection and Ejaculation Conditions and Disorders* [4]: 2 (<1%) n (%)
- Erythemas [4]: 1 (<1%) n (%)
- Extremity Deformities [4]: 1 (<1%) n (%)
- Eye Injuries NEC [4]: 1 (<1%) n (%)
- Fear Symptoms [4]: 1 (<1%) n (%)
- Febrile Disorders [4]: 20 (1%) n (%)
- Fluctuating Mood Symptoms [4]: 2 (<1%) n (%)
- Food Malabsorption and Intolerance Syndromes (Excl Sugar Intolerance) [4]: 1 (<1%) n (%)
- General Nutritional Disorders NEC [4]: 3 (<1%) n (%)
- General Signs and Symptoms NEC [4]: 14 (<1%) n (%)
- Heart Failure Signs and Symptoms [4]: 1 (<1%) n (%)
- Hyperglycaemic Conditions NEC [4]: 4 (<1%) n (%)
- Hyperlipidaemias NEC [4]: 3 (<1%) n (%)
- Increased Physical Activity Levels [4]: 1 (<1%) n (%)
- Intervertebral Disc Disorders NEC [4]: 3 (<1%) n (%)
- Ischaemic Coronary Artery Disorders [4]: 7 (<1%) n (%)
- Joint Related Signs and Symptoms [4]: 31 (2%) n (%)

Reference: patent publication US20070093520A1, “Method of treatment of diarrhea-predominant irritable bowel syndrome in a subject” (priority 2005, published 2007)
